Measured values from US5552421A, “Leukotriene biosynthesis inhibitors” (Boehringer Ingelheim Pharmaceuticals, Inc., priority 1995, dated 1996).

Test system: LTB4 biosynthesis in human polymorphonuclear leukocytes (PMNs)
Test: Inhibition of LTB4 biosynthesis in human polymorphonuclear leukocytes (PMNs)
Type: cell-based
Protocol: Inhibition of LTB4, biosynthesis in human polymorphonuclear leukocytes (PMNs)
The inhibition of leukotriene biosynthesis is measured by determining whether and to what extent test compounds can inhibit LTB4 production from endogenous arachidonic acid in human peripheral blood leukocytes.
To 48-well tissue culture plates was added a solution of the test compound followed by addition of human polymorphonuclear leukocytes isolated from peripheral blood at a density of 1.5×10^6 cells/well. Culture plates were preincubated for fifteen minutes with shaking at 28° C. Cells were stimulated with calcium ionophore A23187 at a final concentration of 2.5 μM for an additional ten minutes. The reaction was terminated by the addition of an EGTA solution (10 mM final concentration)followed by centrifugation at 1500 rpm at 10° C. Supernatants were stored at -70° C. LTB4 levels were determined by RIA using a commercially available kit. Nonlinear regression analysis was used to calculate. IC50 values.
The following tables show % inhibition of LTB4 biosynthesis by compounds of the invention at test concentrations indicated, with the determined IC50 shown in μM.

[1] = Homo sapiens, Leukocyte, Table 4, Pyridyl, values with <: see footnote d, Table 1
[2] = Table 4, Pyridyl, values with <: see footnote d, Table 1
[3] = Homo sapiens, Leukocyte, Table 6, Methyloxadiazole, values with <: see footnote d, Table 1
[4] = Homo sapiens, Leukocyte, Table 7, Ketones
[5] = Homo sapiens, Leukocyte, Table 8, Miscellaneous Acyclic, values with <: see footnote d, Table 1
[6] = Homo sapiens, Leukocyte, Table 9, Miscellaneous Heterocycle, values with <: see footnote d, Table 1
[7] = Homo sapiens, Leukocyte, Table 10, Oxazolopyridines, values with <: see footnote d, Table 1

## Clc1ccc2oc(NC(CC3CCCCC3)c3cccnc3)nc2c1 (stereo not drawn) [Compound 86]
[1]
  IC50: 23 nM

## Clc1ccc2oc(NC(CC3CCCCC3)c3ccccn3)nc2c1 (stereo not drawn) [Compound 91]
[1]
  IC50: 2 nM

## COC(=O)c1ccc2oc(NC(CC3CCCCC3)c3ccccn3)nc2c1 (stereo not drawn) [Compound 92]
[1]
  IC50: 12 nM

## Fc1ccc(CC(Nc2nc3cc(Cl)ccc3o2)c2ccccn2)cc1 (stereo not drawn) [Compound 93]
[1]
  IC50: 19 nM

## CC(C)c1ccc2oc(NC(Cc3ccc(F)cc3)c3ccccn3)nc2c1 (stereo not drawn) [Compound 94]
[1]
  IC50: 12 nM

## FC(F)(F)c1ccc2oc(NC(CC3CCCCC3)c3ccccn3)nc2c1 (stereo not drawn) [Compound 95]
[1]
  IC50: 1.2 nM

## Fc1ccc(CC(Nc2nc3cc(Cl)ccc3s2)c2ccccn2)cc1 (stereo not drawn) [Compound 96]
[1]
  IC50: 27 nM

## Clc1ccc2sc(NC(CC3CCCCC3)c3ccccn3)nc2c1 (stereo not drawn) [Compound 97]
[1]
  IC50: 4 nM

## CC(C)c1ccc2oc(NC(Cc3ccc(Cl)cc3)c3ccccn3)nc2c1 (stereo not drawn) [Compound 98]
[1]
  IC50: 29 nM

## Clc1ccc(CC(Nc2nc3cc(Cl)ccc3o2)c2ccccn2)cc1 (stereo not drawn) [Compound 99]
[1]
  IC50: 14 nM

## CC(C)c1ccc2oc(NC(Cc3cccc(Cl)c3)c3ccccn3)nc2c1 (stereo not drawn) [Compound 100]
[1]
  IC50: 5 nM

## COC(=O)c1ccc2oc(NC(Cc3ccc(F)cc3)c3ccccn3)nc2c1 (stereo not drawn) [Compound 101]
[1]
  IC50: 27 nM

## Clc1ccc2sc(NC(CC3CCCCC3)c3ccccn3)nc2c1 (stereo not drawn) [Compound 102]
[2]
  IC50: 4 nM

## CN(C)S(=O)(=O)c1ccc2oc(NC(Cc3ccc(F)cc3)c3ccccn3)nc2c1 (stereo not drawn) [Compound 103]
[1]
  IC50: 50 nM

## O=[N+]([O-])c1ccc(CC(Nc2nc3cc(Cl)ccc3o2)c2ccccn2)cc1 (stereo not drawn) [Compound 104]
[1]
  IC50: < 30 nM

## Fc1ccc2oc(NC(Cc3cccc(Cl)c3)c3ccccn3)nc2c1 (stereo not drawn) [Compound 105]
[1]
  IC50: < 30 nM

## Fc1ccc(CC(Nc2nc3ccc(C(F)(F)F)cc3s2)c2ccccn2)cc1 (stereo not drawn) [Compound 106]
[1]
  IC50: < 1000 nM

## Fc1ccc(CC(Nc2nc3cc(C(F)(F)F)ccc3o2)c2ccccn2)cc1 (stereo not drawn) [Compound 107]
[1]
  IC50: 8 nM

## FC(F)(F)c1ccc2oc(NC(CC3CCCCC3)c3ccccn3)nc2c1 (stereo not drawn) [Compound 108]
[2]
  IC50: 1 nM

## Fc1ccc2oc(NC(CC3CCCCC3)c3ccccn3)nc2c1 (stereo not drawn) [Compound 109]
[1]
  IC50: 2 nM

## Fc1ccc(CC(Nc2nc3cc(F)ccc3o2)c2ccccn2)cc1 (stereo not drawn) [Compound 110]
[1]
  IC50: 21 nM

## Fc1ccc2oc(NC(CC3CCCCC3)c3ccccn3)nc2c1F (stereo not drawn) [Compound 111]
[1]
  IC50: 4 nM

## Fc1cc2nc(NC(CC3CCCCC3)c3ccccn3)oc2cc1F (stereo not drawn) [Compound 112]
[1]
  IC50: 1 nM

## Fc1ccc(CC(Nc2nc3cc(F)c(F)cc3o2)c2ccccn2)cc1 (stereo not drawn) [Compound 113]
[1]
  IC50: 24 nM

## COc1ccc2oc(NC(Cc3ccc(F)cc3)c3ccccn3)nc2c1 (stereo not drawn) [Compound 114]
[1]
  IC50: 11 nM

## O=[N+]([O-])c1ccc2oc(NC(Cc3ccc(F)cc3)c3ccccn3)nc2c1 (stereo not drawn) [Compound 115]
[1]
  IC50: < 30 nM

## Cc1nc(CC(Nc2nc3cc(C(C)C)ccc3o2)c2ccccn2)cs1 (stereo not drawn) [Compound 116]
[1]
  IC50: < 100 nM

## Cc1nc(CC(Nc2nc3cc(Cl)ccc3o2)c2ccccn2)cs1 (stereo not drawn) [Compound 117]
[1]
  IC50: < 100 nM

## c1csc(C(CC2CCCCC2)Nc2nc3ccccc3o2)c1 (stereo not drawn) [Compound 120]
Homo sapiens, Leukocyte, Table 5, Thiophene
  IC50: 6.2 nM

## Cc1noc(C(Cc2ccccc2)Nc2nc3ccccc3s2)n1 (stereo not drawn) [Compound 121]
[3]
  IC50: 1300 nM

## Cc1noc([C@H](Cc2ccccc2)Nc2nc3ccccc3s2)n1 [Compound 122]
[3]
  IC50: 1800 nM

## CCc1ccc2sc(N[C@@H](Cc3ccccc3)c3nc(C)no3)nc2c1 [Compound 123]
[3]
  IC50: < 1000 nM

## Cc1noc([C@H](CC2CCCCC2)Nc2nc3ccccc3s2)n1 [Compound 124]
[3]
  IC50: 120 nM

## Cc1ccc2oc(N[C@@H](CC3CCCCC3)c3nc(C)no3)nc2c1 [Compound 125, L-2-[2-Cyclohexyl-1-(3-methyl-1,2,4-oxadiazol-5-yl)ethyl]amino-5-methylbenzoxazole]
[3]
  IC50: 28 nM

## Cc1noc(C(Cc2ccc(F)cc2)Nc2nc3cc(C(C)C)ccc3o2)n1 (stereo not drawn) [Compound 126]
[3]
  IC50: < 300 nM

## Cc1noc(C(Cc2csc(C)n2)Nc2nc3cc(C(C)C)ccc3o2)n1 (stereo not drawn) [Compound 127]
[3]
  IC50: < 1000 nM

## CC(=O)[C@H](Cc1ccccc1)Nc1nc2ccc(C(C)C)cc2s1 [Compound 128, 3-[(6-Isopropylbenzothiazol-2-yl)amino]-4-phenylbutan-2-one]
[4]
  IC50: 350 nM

## CC(=O)[C@H](Cc1ccccc1)Nc1nc2ccccc2o1 [Compound 129]
[4]
  IC50: < 1000 nM

## O=C(c1ccccc1)[C@H](Cc1ccccc1)Nc1nc2ccccc2o1 [Compound 130]
[4]
  IC50: < 300 nM

## Cc1ccc2oc(N[C@@H](CC3CCCCC3)C(=O)c3ccccc3)nc2c1 [Compound 131]
[4]
  IC50: < 1000 nM

## Cc1ccc2oc(N[C@@H](CC3CCCCC3)C(=O)c3nccn3C)nc2c1 [Compound 132]
[4]
  IC50: 23 nM

## CCOC[C@H](Cc1ccccc1)Nc1nc2cc(C(C)C)ccc2o1 [Compound 133]
[5]
  IC50: 16 nM

## CCCOC[C@H](Cc1ccccc1)Nc1nc2cc(C(C)C)ccc2o1 [Compound 134]
[5]
  IC50: 220 nM

## CCOC[C@H](Cc1ccccc1)Nc1nc2cc(Cl)ccc2o1 [Compound 135]
[5]
  IC50: 29 nM

## COCC(Cc1ccc(F)cc1)Nc1nc2cc(C(C)C)ccc2o1 (stereo not drawn) [Compound 136]
[5]
  IC50: < 30 nM

## CCOCC(Cc1ccc(F)cc1)Nc1nc2cc(C(C)C)ccc2o1 (stereo not drawn) [Compound 137]
[5]
  IC50: < 30 nM

## CCCOCC(Cc1ccc(F)cc1)Nc1nc2cc(C(C)C)ccc2o1 (stereo not drawn) [Compound 138]
[5]
  IC50: < 300 nM

## COCC(Cc1ccc(OC)cc1)Nc1nc2cc(C(C)C)ccc2o1 (stereo not drawn) [Compound 139]
[5]
  IC50: < 30 nM

## COCC(Cc1cccnc1)Nc1nc2cc(C(C)C)ccc2o1 (stereo not drawn) [Compound 140]
[5]
  IC50: < 1000 nM

## COCC(Cc1csc(C)n1)Nc1nc2cc(C(C)C)ccc2o1 (stereo not drawn) [Compound 141]
[5]
  IC50: < 300 nM

## CSC[C@H](Cc1cccc(Cl)c1)Nc1nc2cc(C(C)C)ccc2o1 [Compound 142]
[5]
  IC50: < 30 nM

## CSCC(Cc1cccnc1)Nc1nc2cc(C(C)C)ccc2o1 (stereo not drawn) [Compound 143]
[5]
  IC50: < 1000 nM

## CSCC(Cc1csc(C)n1)Nc1nc2cc(C(C)C)ccc2o1 (stereo not drawn) [Compound 145]
[5]
  IC50: < 100 nM

## CC(C)c1ccc2oc(NC(Cc3ccccc3)CS(C)(=O)=O)nc2c1 (stereo not drawn) [Compound 146]
[5]
  IC50: < 30 nM

## CC(C)c1ccc2oc(NC(Cc3cccnc3)CS(C)(=O)=O)nc2c1 (stereo not drawn) [Compound 147]
[5]
  IC50: < 1000 nM

## CC(C)c1ccc2oc(N[C@@H](Cc3ccccc3)CN(C)C)nc2c1 [Compound 150]
[5]
  IC50: < 300 nM

## CC(=O)NC[C@H](Cc1ccccc1)Nc1nc2cc(C(C)C)ccc2o1 [Compound 151]
[5]
  IC50: < 100 nM

## CC(C)c1ccc2oc(N[C@H](CNS(=O)(=O)N(C)C)Cc3ccccc3)nc2c1 [Compound 152]
[5]
  IC50: < 100 nM

## CC(C)c1ccc2oc(N[C@H](CNC(N)=O)Cc3ccccc3)nc2c1 [Compound 153]
[5]
  IC50: < 300 nM

## CNC(=O)OC[C@H](Cc1ccccc1)Nc1nc2cc(C(C)C)ccc2o1 [Compound 154]
[5]
  IC50: 63 nM

## Fc1ccc(CC(Nc2nc3cc(Cl)ccc3o2)c2ncc[nH]2)cc1 (stereo not drawn) [Compound 155]
[6]
  IC50: 290 nM

## CC(C)c1ccc2oc(NC(Cc3ccc(F)cc3)c3ncc[nH]3)nc2c1 (stereo not drawn) [Compound 156]
[6]
  IC50: 90 nM

## Cc1nc(CC(Nc2nc3cc(C(C)C)ccc3o2)c2ncc[nH]2)cs1 (stereo not drawn) [Compound 157]
[6]
  IC50: < 1000 nM

## CC(C)c1ccc2oc(NC(Cc3cccc(Cl)c3)c3ncc[nH]3)nc2c1 (stereo not drawn) [Compound 158]
[6]
  IC50: < 30 nM

## CC(C)c1ccc2oc(NC(Cc3cccc(Cl)c3)c3nccs3)nc2c1 (stereo not drawn) [Compound 159]
[6]
  IC50: < 100 nM

## Cc1csc(C(Cc2cccc(Cl)c2)Nc2nc3cc(C(C)C)ccc3o2)n1 (stereo not drawn) [Compound 160]
[6]
  IC50: < 30 nM

## CC(C)c1ccc2oc(NC(Cc3ccccc3)c3cn[nH]c3)nc2c1 (stereo not drawn) [Compound 161]
[6]
  IC50: < 100 nM

## COC(=O)[C@H](CC1CCCCC1)Nc1nc2ncccc2o1 [Compound 162]
[7]
  IC50: 210 nM

## c1ccc(C(CC2CCCCC2)Nc2nc3ncccc3o2)cc1 (stereo not drawn) [Compound 163]
[7]
  IC50: 78 nM

## Cc1ccc2oc(NC(CC3CCCCC3)c3ccccc3)nc2n1 (stereo not drawn) [Compound 164]
[7]
  IC50: 28 nM

## Cc1ccc2oc(NC(CC3CCCCC3)c3cccnc3)nc2n1 (stereo not drawn) [Compound 168]
[7]
  IC50: 300 nM

## c1ccc(C(CC2CCCCC2)Nc2nc3cccnc3o2)cc1 (stereo not drawn) [Compound 170]
[7]
  IC50: 21 nM
